From US20060198914A1, “Use of rutin and isoharmnetin for treating depressive states and depression and other emotion disorders” (Bioplanta Arzneimittel GmbH, priority 2003, published 2006)

System: rats
Assay: forced swimming test in rats
Format: in vivo
Method: The antidepressive efficacy was examined by means of the so-called “forced swimming test” in rats. In performing this test rats are brought into an impasse situation (glass cylinder filled with water) over a specified period of 5 minutes. In this test the rats react with a rigor referred to as an immobilization period which is interpreted as a correlative to a depression. If the rats are treated with medicaments having an antidepressive efficacy before carrying out the test, the immobilization period is decreased. Since other psychotropic drugs such as anxiolytics or neuroleptics are not effective in this test, this test system is well suitable for detecting antidepressive effects (Porsolt et al. 1978; Porsolt, 1991). In this test all hitherto known antidepressives have to be administered over a period of several days in order to be effective (similar to the administration to patients). The test animals were treated either with the test substance or for control purposes with the solvent only or with the tricyclic antidepressive imipramine for a comparison of the efficacy.
The following tables exemplarily show the efficacy of rutin, isorhamnetin and plant extracts containing isorhamnetin derivatives or rutin in sufficient amounts. In each table the inhibition of the immobility is expressed in terms of % inhibition against the control group for comparison purposes.

| SMILES | Inhibition of immobility [% of the control] (Table 2, dose 3 mg/kg) | Inhibition of immobility [% of the control] (Table 2, dose 10 mg/kg) | Inhibition of immobility [% of the control] (Table 1, dose 3 mg/kg) | Inhibition of immobility [% of the control] (Table 1, dose 6 mg/kg) | Inhibition of immobility [% of the control] (Table 1, dose 12 mg/kg) | Inhibition of immobility [% of the control] (Table 1, dose 24 mg/kg) | Inhibition of immobility [% of the control] (Table 1, dose 48 mg/kg) | Inhibition of immobility [% of the control] (Table 1, dose 30 mg/kg) | Inhibition [% of the control] (Table 3, dose 20 mg/kg) | Inhibition [% of the control] (Table 4, dose 20 mg/kg) | Inhibition [% of the control] (Table 5, dose 30 mg/kg) |
| --- | --- | --- | --- | --- | --- | --- | --- | --- | --- | --- | --- |
| COc1cc(-c2oc3cc(O)cc(O)c3c(=O)c2O)ccc1O [Isorhamnetin, 3,5,7-trihydroxy-2-(4-hydroxy-3-methoxyphenyl)-4H-1-benzopyran-4-one] | 17 % of the control | 56 % of the control |  |  |  |  |  |  |  |  |  |
| C[C@@H]1O[C@@H](OC[C@H]2O[C@@H](Oc3c(-c4ccc(O)c(O)c4)oc4cc(O)cc(O)c4c3=O)[C@H](O)[C@@H](O)[C@@H]2O)[C@H](O)[C@H](O)[C@H]1O [Rutin, 3-[[6-O-(6-deoxy-α-L-mannopyranosyl)-β-D-glucopyranosyl]oxy]-2-(3,4-dihydroxyphenyl)-5,7-dihydroxy-4H-1-benzopyran-4-one] |  |  | 8 % of the control | 41 % of the control | 42 % of the control | 49 % of the control | 74 % of the control |  |  |  |  |
| CN(C)CCCN1c2ccccc2CCc2ccccc21 [Imipramine, imipramine, reference compound] | 3 % of the control | 24 % of the control |  |  |  |  |  | 46 % of the control | 43 % of the control | 43 % of the control | 64 % of the control |
